Bounds are passed on as bounds.

The subject of the first test is HBV. Description: HBV-DNA antiviral assay using HepG2.117 cells. Format: cell-based, genotype D HBV. The settings on record: Hepatitis B virus, 72 h, intracellular HBV DNA by qPCR, 3 days incubation. How it is done:
The following assay procedure describes the HBV antiviral assay, using HepG2.117 cells, which carry a stably integrated genotype D HBV genome under the control of a Tet-off promoter, and intracellular HBV DNA quantification as endpoint. Cell viability is assessed in parallel by measuring the intracellular ATP content using ATPlite (Perkin Elmer).
On day 0, HepG2.117 cells (which are maintained in routine cell culture with doxycycline present in the medium at a final concentration of 1 μg/mL) were seeded in 96-well plates (white with clear bottom) at a density of 2.0×10^4 cells/well (0.1 mL/well) in medium without doxycycline to induce pgRNA transcription and subsequent formation of HBV particles. The cells were incubated at 37° C. and 5% CO2.
On day 1, medium was removed from each well, the test articles were diluted in culture medium without doxcycyline and 100 μL was added to cell culture wells (9 concentrations, 4-fold dilution). For each plate, 6 untreated (merely DMSO) wells were included. The final concentration of DMSO in the culture medium was 2%. Each plate was prepared in duplicate (one for HBV DNA extraction, one for ATPlite measurement). The cells were incubated at 37° C. and 5% CO2 for 3 days.
On day 4, cell viability was assessed using ATPlite and cell lysates were prepared for HBV DNA extraction and subsequent quantification by qPCR.
Medium was removed from each well and 100 μL of 0.33% NP-40 in H2O was added to each well. Plates were sealed, incubated at 4° C. for 5 mins, vortexed extensively and centrifuged briefly. Next, 35 μL of lysate was added to 65 μL QuickExtract DNA Extraction Solution (Epicentre) in a PCR plate for each well. PCR plate was incubated at 65° C. for 6 mins, 98° C. for 2 mins and finally cooled to 4° C. HBV DNA was then quantified by qPCR with HBV-specific primers and probes as specified in Table 1 using the Bio-Rad SSOAdvanced Universal Probes Supermix on a CFX96 machine (Bio-Rad). The PCR cycle program consisted of 95° C. for 3 mins, followed by 40 cycles at 95° C. for 10 sec and 60° C. for 30 sec.
A DNA standard was prepared by dilution of an IDT gBlock corresponding to the amplicon with concentrations ranging from 10^2 to 10^8 copies/input (i.e. per 4 μL) and used to generate a standard curve by plotting Cq values vs. HBV DNA standard concentration. The quantity of HBV DNA in each sample was determined by interpolating from the standard curve.
Cell viability was calculated as follows: % Cell viability=(luminescence value of test sample)/(average luminescence value of 2% DMSO control)×100%. HBV DNA inhibition was calculated as follows: 100−(HBV DNA copy number of test sample)/(average HBV DNA copy number of 2% DMSO control)×100%. No normalization to entecavir was required due to the excellent dynamic window of this assay. The CC50, EC50 and EC90 values were determined by dose-response curves fitted by GraphPad Prism using “log (agonist) vs. response—Variable slope”.
For orientation: Real-time PCR tracks product formation cycle by cycle.
In the case of `CNC(=O)c1ccc(-n2c(=O)c3c(n4ncc(Cc5ccc(OC(F)(F)F)cc5)c24)CN(C(=O)c2ccc(Cl)c(Cl)c2)CC3)cc1` [Compound 36, 4-[12-(3,4-dichlorobenzoyl)-8-oxo-5-[[4-(trifluoromethoxy)phenyl]methyl]-2,3,7,12-tetrazatricyclo [7.4.0.0 2,6]trideca-1(9),3,5-trien-7-yl]-N-methyl-benzamide], the concentration for a half-maximal effect (EC50) lay in the range of 100 to 500 nM.

Regarding `CNC(=O)c1ccc(-n2c(=O)c3c(n4ncc(Cc5ccc(OC)cc5)c24)CN(C(=O)c2ccc(Br)c(Cl)c2)CC3)cc1` [Compound 88, 4-[12-(4-bromo-3-chloro-benzoyl)-5-[(4-methoxyphenyl)methyl]-8-oxo-2,3,7,12-tetrazatricyclo [7.4.0.0 2,6]trideca-1(9),3,5-trien-7-yl]-N-methyl-benzamide], the EC50 is ≤ 100 nM. The same measure, in the same setting: under `CNC(=O)c1ccc(-n2c(=O)c3c(n4ncc(NCc5ccc(F)cc5)c24)CN(C(=O)c2ccc(Br)c(C#N)c2)CC3)cc1` [Compound 70, 4-[12-(4-bromo-3-cyano-benzoyl)-5-[(4-fluorophenyl)methylamino]-8-oxo-2,3,7,12-tetrazatricyclo [7.4.0.0 2,6]trideca-1(9),3,5-trien-7-yl]-N-methyl-benzamide] stands 100 to 500 nM. Still for that read-out and setting: under `CNC(=O)c1ccc(-n2c(=O)c3c(n4ncc(Cc5ccccc5)c24)CN(C(=O)c2ccc(Br)c(C#N)c2)CC3)cc1` [Compound 37, 4-[5-benzyl-12-(4-bromo-3-cyano-benzoyl)-8-oxo-2,3,7,12-tetrazatricyclo [7.4.0.0 2,6]trideca-1(9),3,5-trien-7-yl]-N-methyl-benzamide] stands ≤ 100 nM. On the same count and under the same terms, under `CNC(=O)c1ccc(-n2c(=O)c3c(n4ncc(Cc5ccc(F)cc5)c24)CN(C(=O)c2ccc(Br)c(C#N)c2)CC3)cc1` [Compound 60, 4-[12-(4-bromo-3-cyano-benzoyl)-5-[(4-fluorophenyl)methyl]-8-oxo-2,3,7,12-tetrazatricyclo [7.4.0.0 2,6]trideca-1(9),3,5-trien-7-yl]-N-methyl-benzamide] stands ≤ 100 nM. `CNC(=O)c1ccc(-n2c(=O)c3c(n4ncc(NCc5ccc(OC(F)F)cc5)c24)CN(C(=O)c2ccc(Cl)c(Cl)c2)CC3)cc1` [Compound 41, 4-[12-(3,4-dichlorobenzoyl)-5-[[4-(difluoromethoxy)phenyl]methylamino]-8-oxo-2,3,7,12-tetrazatricyclo [7.4.0.0 2,6]trideca-1(9),3,5-trien-7-yl]-N-methyl-benzamide] gave an EC50 of 500 to 5000 nM. The same measure, in the same setting: as for `CNC(=O)c1ccc(-n2c(=O)c3c(n4ncc(Cc5ccc(C#N)cc5)c24)CN(C(=O)c2ccc(Cl)c(Cl)c2)CC3)cc1` [Compound 48, 4-[5-[(4-cyanophenyl)methyl]-12-(3,4-dichlorobenzoyl)-8-oxo-2,3,7,12-tetrazatricyclo [7.4.0.0 2,6]trideca-1(9),3,5-trien-7-yl]-N-methyl-benzamide], the figure is ≤ 100 nM; as for `CNC(=O)c1ccc(-n2c(=O)c3c(n4ncc(NCc5ccc(OCC(N)=O)cc5)c24)CN(C(=O)c2ccc(Cl)c(Cl)c2)CC3)cc1` [Compound 53, 4-[5-[[4-(2-amino-2-oxo-ethoxy)phenyl]methylamino]-12-(3,4-dichlorobenzoyl)-8-oxo-2,3,7,12-tetrazatricyclo [7.4.0.0 2,6]trideca-1(9),3,5-trien-7-yl]-N-methyl-benzamide], 500 to 5000 nM; as for `COc1ccc(-n2c(=O)c3c(n4ncc(NS(C)(=O)=O)c24)CN(C(=O)c2ccc(Cl)c(Cl)c2)CC3)cc1` [Compound 26, N-[12-(3,4-dichlorobenzoyl)-7-(4-methoxyphenyl)-8-oxo-2,3,7,12-tetrazatricyclo [7.4.0.0 2,6]trideca-1(9),3,5-trien-5-yl] methanesulfonamide], 500 to 5000 nM. `O=C(c1ccc(Br)c(F)c1)N1CCc2c(n3nccc3n(-c3ccccc3)c2=O)C1` [Compound 4, 8-(4-bromo-3-fluorobenzoyl)-4-phenyl-6,7,8,9-tetrahydropyrazolo[1,5-a]pyrido[4,3-e]pyrimidin-5(4H)-one]: the EC50 is > 5000 nM. With `CCNC(=O)c1ccc(-n2c(=O)c3c(n4ncc(Cc5ccccc5)c24)CN(C(=O)c2ccc(Br)c(C#N)c2)CC3)cc1` [Compound 62, 4-[5-benzyl-12-(4-bromo-3-cyano-benzoyl)-8-oxo-2,3,7,12-tetrazatricyclo [7.4.0.0 2,6]trideca-1(9),3,5-trien-7-yl]-N-ethyl-benzamide], the EC50 is 500 to 5000 nM. `O=C(c1ccc(Br)c(F)c1)N1CCc2c(n3ncc(Cc4ccccc4)c3n(-c3ccccc3)c2=O)C1` [Compound 9, 5-benzyl-12-(4-bromo-3-fluorobenzoyl)-7-phenyl-2,3,7,12-tetraazatricyclo[7.4.0.0^[2,6]]trideca-1(9),3,5-trien-8-one] had an EC50 of 100 to 500 nM. Still for that read-out and setting: under `O=C(c1ccc(Br)c(Cl)c1)N1CCc2c(n3ncc(Cc4ccccc4)c3n(-c3ccccc3)c2=O)C1` [Compound 12, 5-benzyl-12-(4-bromo-3-chlorobenzoyl)-7-phenyl-2,3,7,12-tetraazatricyclo[7.4.0.0^[2,6]]trideca-1(9),3,5-trien-8-one] stands 100 to 500 nM.

On to `CNC(=O)c1ccc(-n2c(=O)c3c(n4ncc(N[C@H](C)c5ccccc5)c24)CN(C(=O)c2ccc(Br)c(Cl)c2)CC3)cc1` (stereo in doubt) [Compound 79, 4-[12-(4-bromo-3-chloro-benzoyl)-8-oxo-5-[[rac-(1R)-1-phenylethyl]amino]-2,3,7,12-tetrazatricyclo [7.4.0.0 2,6]trideca-1(9),3,5-trien-7-yl]-N-methyl-benzamide], for which the EC50 was in the range of 100 to 500 nM.

On to `O=C(NCc1ccccc1)c1cnn2c3c(c(=O)n(-c4ccccc4)c12)CCN(C(=O)c1ccc(Cl)c(Cl)c1)C3` [Compound 20, N-benzyl-12-(3,4-dichlorobenzoyl)-8-oxo-7-phenyl-2,3,7,12-tetrazatricyclo [7.4.0.0^2,6] trideca-1(9),3,5-triene-5-carboxamide], for which the EC50 was > 5000 nM. On the same count and under the same terms, under `CNC(=O)c1ccc(-n2c(=O)c3c(n4ncc(NCc5ccc(C#N)cc5)c24)CN(C(=O)c2ccc(Br)c(Cl)c2)CC3)cc1` [Compound 55, 4-[12-(4-bromo-3-chloro-benzoyl)-5-[(4-cyanophenyl)methylamino]-8-oxo-2,3,7,12-tetrazatricyclo [7.4.0.0 2,6]trideca-1(9),3,5-trien-7-yl]-N-methyl-benzamide] stands 100 to 500 nM; under `COc1ccc(-n2c(=O)c3c(n4ncc(NC(=O)Cc5ccccc5)c24)CN(C(=O)c2ccc(Cl)c(Cl)c2)CC3)cc1` [Compound 23, N-[12-(3,4-dichlorobenzoyl)-7-(4-methoxyphenyl)-8-oxo-2,3,7,12-tetrazatricyclo [7.4.0.0 2,6]trideca-1(9),3,5-trien-5-yl]-2-phenyl-acetamide], 500 to 5000 nM.

The same test, now with this note: intracellular HBV DNA by qPCR, 3 days incubation.
`O=C(c1ccc(Br)c(Cl)c1)N1CCc2c(n3nccc3n(Cc3ccccc3)c2=O)C1` [Compound 6, 7-benzyl-12-(4-bromo-3-chlorobenzoyl)-2,3,7,12-tetraazatricyclo[7.4.0.0^[2,6]]trideca-1(9),3,5-trien-8-one]: the EC50 fell in the range of 500 to 5000 nM. Consider `COc1ccc(-n2c(=O)c3c(n4ncc(NCc5ccccc5)c24)CN(C(=O)c2ccc(Cl)c(Cl)c2)CC3)cc1` [Compound 25, 5-(benzylamino)-12-(3,4-dichlorobenzoyl)-7-(4-methoxyphenyl)-2,3,7,12-tetraazatricyclo[7.4.0.0^[2,6]]trideca-1(9),3,5-trien-8-one], for which the EC50 was ≤ 100 nM. For `CNC(=O)c1ccc(-n2c(=O)c3c(n4ncc(Cc5ccccc5)c24)CN(C(=O)c2ccc(Br)c(Cl)c2)CC3)cc1` [Compound 29, 4-[5-benzyl-12-(4-bromo-3-chlorobenzoyl)-8-oxo-2,3,7,12-tetraazatricyclo[7.4.0.0^[2,6]]trideca-1(9),3,5-trien-7-yl]-N-methylbenzamide], the EC50 was ≤ 100 nM.

As to `O=C(c1ccc(Br)c(Cl)c1)N1CCc2c(n3nccc3n(-c3ccccc3)c2=O)C1` [Compound 5, 12-(4-bromo-3-chlorobenzoyl)-7-phenyl-2,3,7,12-tetraazatricyclo[7.4.0.0^[2,6]]trideca-1(9),3,5-trien-8-one], the EC50 was in the range of 500 to 5000 nM.

What is called EC50 is the concentration at which the effect is half-maximal. A high value points to a less potent agent.

Source of the values: patent US11136321B2, “Tricyclic compounds” (ALIGOS THERAPEUTICS, INC., priority 2019, dated 2021).
